Source: patent US20200246316A1, “METHODS OF TREATING POST-SURGICAL PAIN WITH A THIAZOLINE ANTI-HYPERALGESIC AGENT” (CERSCI THERAPEUTICS, INC., priority 2019, published 2020)
Where a name gives a salt, the structure may show the parent alone. Read-outs that look alike come from different tables or passages of the source.

Test: Rat 28-day GLP repeat dose PO study (toxicokinetics)
Type: in vivo
Settings: rat, in vivo, po; for half-life: read-out: t1/2 (converted); for Tmax: read-out: tmax; for Cmax: read-out: Cmax
Experimental: The vehicle was 0.5% HPMC. There were 15 rats/sex in the control and high dose groups (5/sex for a 14-day recovery period) while the low and mid doses consisted of 10 rats/sex. Satellite groups of rats/sex/group for toxicokinetics were included.
Rats in Group 1 (Vehicle Control) were bled once at approximately 1 hour post-dose on those days.

[1] = female, 2000 mg/kg, Day 28, F, 2000 mg/kg PO
[2] = male, 500 mg/kg, Day 1, M, 500 mg/kg PO
[3] = male, 500 mg/kg, Day 14, M, 500 mg/kg PO
[4] = male, 500 mg/kg, Day 28, M, 500 mg/kg PO
[5] = male, 1000 mg/kg, Day 1, M, 1000 mg/kg PO
[6] = male, 1000 mg/kg, Day 14, M, 1000 mg/kg PO
[7] = male, 1000 mg/kg, Day 28, M, 1000 mg/kg PO
[8] = male, 2000 mg/kg, Day 1, M, 2000 mg/kg PO
[9] = male, 2000 mg/kg, Day 14, M, 2000 mg/kg PO
[10] = male, 2000 mg/kg, Day 28, M, 2000 mg/kg PO

CC1(C)SC(Nc2ccccc2O)=N[C@@H]1C(=O)O [Compound 1, (R)-2-(2-hydroxyphenylamino)-5,5-dimethyl-4,5-dihydrothiazole-4-carboxylic acid mono-hydrochloride]
Vd/F (female, 2000 mg/kg, Day 28, F, 2000 mg/kg PO, read-out: V/F (Vss/F)): 8.7 L/kg | half-life [1]: 3.93 h | Tmax [1]: 0.5 h | AUC [2]: 270 µg·h/mL | AUC(0-inf) [2]: 275 µg·h/mL | CL/F (male, 500 mg/kg, Day 1, M, 500 mg/kg PO, read-out: CL/F (CLz/F) (converted)): 30.3 mL/min/kg | Cmax [2]: 55.1 µg/mL | Vd/F (male, 500 mg/kg, Day 1, M, 500 mg/kg PO, read-out: V/F (Vz/F)): 11 L/kg | half-life [2]: 4.18 h | Tmax [2]: 1 h | AUC [3]: 244 µg·h/mL | AUC(0-inf) [3]: 258 µg·h/mL | CL/F (male, 500 mg/kg, Day 14, M, 500 mg/kg PO, read-out: CL/F (CLss/F) (converted)): 34.2 mL/min/kg | Cmax [3]: 45.8 µg/mL | Vd/F (male, 500 mg/kg, Day 14, M, 500 mg/kg PO, read-out: V/F (Vss/F)): 18.5 L/kg | half-life [3]: 6.27 h | Tmax [3]: 1 h | AUC [4]: 305 µg·h/mL | AUC(0-inf) [4]: 333 µg·h/mL | CL/F (male, 500 mg/kg, Day 28, M, 500 mg/kg PO, read-out: CL/F (CLss/F) (converted)): 27.3 mL/min/kg | Cmax [4]: 48.6 µg/mL | Vd/F (male, 500 mg/kg, Day 28, M, 500 mg/kg PO, read-out: V/F (Vss/F)): 16.4 L/kg | half-life [4]: 6.9 h | Tmax [4]: 1 h | CL/F (male, 1000 mg/kg): 56.8 mL/min/kg | AUC [5]: 456 µg·h/mL | AUC(0-inf) [5]: 460 µg·h/mL | CL/F (male, 1000 mg/kg, Day 1, M, 1000 mg/kg PO, read-out: CL/F (CLz/F) (converted)): 36.2 mL/min/kg | Cmax [5]: 52.7 µg/mL | Vd/F (male, 1000 mg/kg, Day 1, M, 1000 mg/kg PO, read-out: V/F (Vz/F)): 10.9 L/kg | half-life [5]: 3.46 h | Tmax [5]: 1 h | AUC [6]: 293 µg·h/mL | AUC(0-inf) [6]: 296 µg·h/mL | Cmax [6]: 51.9 µg/mL | Vd/F (male, 1000 mg/kg, Day 14, M, 1000 mg/kg PO, read-out: V/F (Vss/F)): 18.1 L/kg | half-life [6]: 3.68 h | Tmax [6]: 1 h | AUC [7]: 334 µg·h/mL | AUC(0-inf) [7]: 337 µg·h/mL | CL/F (male, 1000 mg/kg, Day 28, M, 1000 mg/kg PO, read-out: CL/F (CLss/F) (converted)): 49.8 mL/min/kg | Cmax [7]: 47.9 µg/mL | Vd/F (male, 1000 mg/kg, Day 28, M, 1000 mg/kg PO, read-out: V/F (Vss/F)): 14.3 L/kg | half-life [7]: 3.31 h | CL/F (male, 2000 mg/kg): 47.7 mL/min/kg | AUC [8]: 768 µg·h/mL | AUC(0-inf) [8]: 771 µg·h/mL | CL/F (male, 2000 mg/kg, Day 1, M, 2000 mg/kg PO, read-out: CL/F (CLz/F) (converted)): 43.2 mL/min/kg | Cmax [8]: 83.1 µg/mL | Vd/F (male, 2000 mg/kg, Day 1, M, 2000 mg/kg PO, read-out: V/F (Vz/F)): 10.5 L/kg | half-life [8]: 2.81 h | AUC [9]: 701 µg·h/mL | AUC(0-inf) [9]: 709 µg·h/mL | Cmax [9]: 75.6 µg/mL | Vd/F (male, 2000 mg/kg, Day 14, M, 2000 mg/kg PO, read-out: V/F (Vss/F)): 15.1 L/kg | half-life [9]: 3.66 h | Tmax [9]: 1 h | AUC [10]: 724 µg·h/mL | AUC(0-inf) [10]: 731 µg·h/mL | CL/F (male, 2000 mg/kg, Day 28, M, 2000 mg/kg PO, read-out: CL/F (CLss/F) (converted)): 46 mL/min/kg | Cmax [10]: 83.6 µg/mL | Vd/F (male, 2000 mg/kg, Day 28, M, 2000 mg/kg PO, read-out: V/F (Vss/F)): 14.1 L/kg | half-life [10]: 3.53 h | t1/2 (2000 mg/kg): 8 05 hr
